Experiments:
[1] = system: CD4+ T cells (ConA-stimulated PBMC); assay: ConA mitogen-induced CD4+ T cell proliferation in CFSE-stained PBMC (PBMC responder/suppression assay); assay type: cell-based, canine; settings: for effect of co-added inhibitor on WJ-MSC EV mediated suppression of CD4+ T cell division: 10 μM TGF-βRI inhibitor, 50 μM ZM241385, 0.1 μg/ml neutralizing antibody
Description: Serum-free culture medium from canine Wharton's Jelly mesenchymal stem cells (WJ-MSC: CD44^+, CD90^+, CD34^−, CD45^−, MHCII^−, n=6 cell lines) was collected after 48 hours, and extracellular vesicles (WJ-EV) were isolated by differential centrifugation. WJ-EV output was assessed using single vesicle nanoparticle tracking analysis (NTA). CFSE-stained peripheral blood mononuclear cells (PBMC) were collected from healthy dogs (n=8), exposed to Concanavalin A mitogen (ConA; 5 μg/ml) and co-incubated with WJ-MSC (1:10) across transwell membrane (0.4 μm pore size) or with WJ-MSC EV (1:10^4)±10 μM SB431542 (TGFβR1 inhibitor) or TGF-β neutralizing (e.g., inhibiting) antibody (Ab) for 72 hours. Analysis of CFSE fluorescence using FlowJo (v7.6.5) yielded % CD4^+ cells that had undergone division (T-cell proliferation).
PBMC responder assay: Twelve healthy adult purpose-bread Beagle dogs (5 neutered males, 7 spayed females) housed at the Laboratory Animal Medicine department at the Cummings School of Veterinary Medicine at Tufts University served as blood donors under an approved protocol. […] or WJ-MSC were tested in triplicate against a minimum of 3 different PBMC donor cell samples (see Figure legends for ‘n’ of each experiment). Healthy status was confirmed by clinical examination, and hematological and serum biochemical testing within six months of blood sampling. All dogs were fasted for 12 hours prior to peripheral blood sampling. Peripheral blood samples were taken via jugular venipuncture using a 21 gauge needle, and blood was immediately placed into an EDTA collection tube and rotated 1-2 times gently. Blood was diluted 1:1 with cold PBS or centrifuged (1300×g, 10 min) prior to dilution 1:2 in PBS, followed by density-gradient centrifugation using Ficoll-Paque (density 1.077; GE Healthcare Life Sciences) to harvest peripheral blood mononuclear cells (PBMC). PBMC were washed in RPMI (Life Technologies) supplemented with 10% heat-inactivated fetal bovine serum (Gibco), […] (Life Technologies), 100 μM β-mercaptoethanol (Sigma-Aldrich), 10,000 U/ml penicillin-streptomycin, 2 mM L-glutamine (Life Technologies), and 2.2 mg/mL of sodium bicarbonate (Thermo Fisher Scientific) (complete RPMI, ‘cRPMI’). For mitogen induced lymphocytes proliferation assays, PBMC were suspended in 1 ml cRPMI and 0.5 μof 10 mM carboxyfluorescein succinimidyl ester (CFSE, Thermo Fisher Scientific) and were incubated (10 min). For initial characterization of WJ-MSC effects on responder PBMC, PBMC were plated on a 24-well plate on the top of a 0.4 μm Transwell (Corning) across from the WJ-MSC in a 10:1 ratio (PBMC:MSC) in a total volume of 1 ml medium (n=3 technical replicates/sample). All plates were incubated at 37° C. in the dark for 72 hours prior to analysis.
Dose-responses of TV MSC-EV: To investigate the dose response of PBMC to WJ-MSC EV, the […] were plated on a 96-well plate in cRPMI with addition of 1 mM ATP, with or without 5 μg/ml Concanavalin A (ConA, Sigma-Aldrich). Responder PBMC were incubated with WJ-MSC EV in a total volume of 200 μL medium (n=3 technical replicates per sample). PBMC were incubated with WJ-MSC EV in a 1:10^2, 1:10^3, or 1:10^4 (PBMC:EV) ratio. After 72 hours of incubation, the PBMC were collected and surface stained for CD4 (rat anti-canine CD4-Alexa 647, clone YKIX302.9, AbD Serotec). Cells were stained for 30 minutes, washed twice with cold PBS and 5% FBS, and resuspended in 200 μl PBS and 5% FBS with 5 μl 7AAD (Becton Dickinson) for analysis by flow cytometry (Accuri C6, Becton Dickinson). The effect of WJ-MSC or WJ-MSC EV on CD4-positive (CD4^+) T cell (i.e., T helper cell) proliferation (percentage of cells proliferating, number of divisions for proliferating cells) was measured by evaluating CFSE fluorescence utilizing the FlowJo® proliferation platform (FlowJo, V10, Ashland, Oreg.) after gating on the viable CD4^+ lymphocyte population. […]

WJ-MSC = assay: EV (exosome) output from WJ-MSC under GW4869, by nanoparticle tracking analysis; assay type: cell-based, canine
Description: Particle size distribution using nanoparticle tracking analysis (NTA): Samples were analyzed using a NanoSight N300 unit (Malvern) equipped with a 488 nm (blue) laser module and Nanoparticle Tracking Analysis 3.0 software. All samples were diluted in sterile PBS to a concentration of 1-10×10^8 particles/mL for analysis. Specific NTA settings were optimized for each sample, with fixed settings of temperature (23° C.), screen gain (1.0), infusion flow rate (5 μL/min), and camera level set at 12-14 depending on sample characteristics. Five videos were recorded for each sample (30-120 s video length) with all settings remaining constant within each sample source to minimize variation. […] The NTA unit was periodically evaluated for accuracy of size determination using polystyrene beads of known size (100 and 200 nm).
EV depletion and enzymatic digestion experiments: EV were isolated as described, resuspended in 5 ml PBS, and divided into 5 fractions of 1 ml each. […] The EV sediment was resuspended in PBS and particle numbers were quantified using nanoparticle tracking analysis (NTA) as described supra. […] The retentate was resuspended in 1 ml PBS, and particle content was evaluated by NTA. […] As well, WJ-MSC EV, EV (10^4:1 PBMC) from conditioned medium of non-MSC fibroblasts (canine left ventricular cardiac fibroblasts) were evaluated for suppression of PBMC.

## O=C(/C=C/c1ccc(/C=C/C(=O)Nc2ccc(C3=NCCN3)cc2)cc1)Nc1ccc(C2=NCCN2)cc1 [GW4869]
[1]; WJ-MSC pre-treated 48 hours at 6 μM, then across Transwell from PBMC with ConA, untreated WJ-MSC 28.2±1.4%
  T cell division with WJ-MSC pre-treated with EV-release inhibitor: 51.7±13.5%
WJ-MSC; increasing concentrations, n=3 WJ-MSC lines
  release of WJ-MSC-EV (particles released in 48 hours): decreased
WJ-MSC; increasing doses applied to WJ-MSC, 48 hours
  concentration giving maximal suppression of exosome output without unacceptable loss of viability: 5 to 10 µM

## NC(=O)c1ccc(-c2nc(-c3ccc4c(c3)OCO4)c(-c3ccccn3)[nH]2)cc1 [SB431542]
[1]; 72 h
  effect of co-added inhibitor on WJ-MSC EV mediated suppression of CD4+ T cell division: significantly reduced
[1]; Example 2, 10 μM SB431542 added to ConA+WJ-EV, ConA+WJ-EV alone 23±13%
  % CD4+ division: 52±17%

## Nc1nc(NCCc2ccc(O)cc2)nc2nc(-c3ccco3)nn12 [ZM241385]
[1]; 72 h
  effect of co-added inhibitor on WJ-MSC EV mediated suppression of CD4+ T cell division: significantly reduced

## IFN-γ: interferon-gamma used to pre-condition WJ-MSC
[1]; WJ-MSC pretreated with 500 ng IFN-γ for 48 hours
  further suppression by WJ-MSC or WJ-MSC EV after pre-conditioning of WJ-MSC: not statistically significant

## Triton-X
[1]; 0.1% Triton-X, 2 μg/ml RNAse A, proteinase K 30 min 37°C, heparinase 0.006 U/ml 3 hours, 10^4 EV:1 PBMC
  effect of pre-treating WJ-MSC EV on their suppression of CD4+ T cell division: completely abrogated

## soluble TGF-β1: recombinant human TGF-β1 (R&D Systems)
[1]; 5 ng/ml added to ConA stimulated PBMC
  suppression of mitogen driven T cell division by exogenous TGF-β: not
[1]; 10 ng/ml added to ConA stimulated PBMC
  suppression of mitogen driven T cell division by exogenous TGF-β: suppressed
[1]; 50 ng/ml added to ConA stimulated PBMC
  suppression of mitogen driven T cell division by exogenous TGF-β: suppressed
[1]; Example 2, ConA 5 μg/ml, 72 h, WJ-MSC 1:10 across transwell, WJ-EV 1:10^4, ConA alone 60±17%
  % CD4+ division (CD4+ cells that had undergone division): 21±10%

— patent US20200392219A1, “EXTRACELLULAR VESICLES COMPRISING MEMBRANE-TETHERED TGF-BETA, COMPOSITIONS AND METHODS OF USE THEREOF” (TRUSTEES OF TUFTS COLLEGE, priority 2017, published 2020)
